Measurements from article PMC5218480 (PLoS ONE, 2017).

System: MV-4-11 cells
Assay: Gene expression microarray analysis (Affymetrix PrimeView) and GSEA
Type: cell-based, human
Design: RFU PODN (11730768_x_at) / Fold change /veh PODN (11730768_x_at) / RFU LINC00158 (11744669_a_at) / Fold change /veh LINC00158 (11744669_a_at) / RFU DUSP10 (11751237_a_at) / Fold change /veh DUSP10 (11751237_a_at) / RFU ID3 (11757404_x_at) / Fold change /veh ID3 (11757404_x_at) / RFU PLEKHG5 (11737974_s_at) / Fold change /veh PLEKHG5 (11737974_s_at) / RFU LRRC4B (11730491_at) / Fold change /veh LRRC4B (11730491_at) / RFU GIMAP4 (11747438_a_at) / Fold change /veh GIMAP4 (11747438_a_at) / RFU KRT8 (11758183_x_at) / Fold change /veh KRT8 (11758183_x_at) / RFU CNN1 (11734310_a_at) / Fold change /veh CNN1 (11734310_a_at) / RFU VPS37D (11726825_at) / Fold change /veh VPS37D (11726825_at) / RFU C10orf10 (11716522_x_at) / Fold change /veh C10orf10 (11716522_x_at) / RFU KIR2DL2 /// KIR2DL4 /// KIR2DL5A /// KIR2DL5B /// KIR2DS1 /// KIR2DS2 /// KIR2DS3 /// KIR2DS4 /// KIR3DL3 /// KIR3DL3 /// KIR3DS1 (11738374_at) / Fold change /veh KIR2DL2 /// KIR2DL4 /// KIR2DL5A /// KIR2DL5B /// KIR2DS1 /// KIR2DS2 /// KIR2DS3 /// KIR2DS4 /// KIR3DL3 /// KIR3DL3 /// KIR3DS1 (11738374_at) / RFU C1QL1 (11718748_at) / Fold change /veh C1QL1 (11718748_at) / RFU TMPRSS4 (11747572_a_at) / Fold change /veh TMPRSS4 (11747572_a_at) / RFU HAMP (11756126_x_at) / Fold change /veh HAMP (11756126_x_at) / RFU RNFT2 (11725882_a_at) / Fold change /veh RNFT2 (11725882_a_at) / RFU NR4A2 (11747474_a_at) / Fold change /veh NR4A2 (11747474_a_at) / RFU ABCC12 (11746883_a_at) / Fold change /veh ABCC12 (11746883_a_at) / RFU TMEM136 (11760407_x_at) / Fold change /veh TMEM136 (11760407_x_at) / RFU CLDN22 /// WWC2 (11732394_at) / Fold change /veh CLDN22 /// WWC2 (11732394_at) / RFU HLA-DPB1 (11760878_x_at) / Fold change /veh HLA-DPB1 (11760878_x_at) / RFU SPINT1 (11716480_a_at) / Fold change /veh SPINT1 (11716480_a_at) / RFU GAP43 (11754022_s_at) / Fold change /veh GAP43 (11754022_s_at) / RFU A4GNT (11735810_at) / Fold change /veh A4GNT (11735810_at) / RFU PRB3 (11715151_x_at) / Fold change /veh PRB3 (11715151_x_at) / RFU TUBB4B (11761932_at) / Fold change /veh TUBB4B (11761932_at) / RFU CAPN14 (11732068_a_at) / Fold change /veh CAPN14 (11732068_a_at) / RFU TMCC2 (11721928_a_at) / Fold change /veh TMCC2 (11721928_a_at) / RFU IRGQ (11745062_a_at) / Fold change /veh IRGQ (11745062_a_at) / RFU FAM174B (11720279_a_at) / Fold change /veh FAM174B (11720279_a_at) / RFU TMPRSS4 (11748680_a_at) / Fold change /veh TMPRSS4 (11748680_a_at) / RFU FAM212B (11763350_a_at) / Fold change /veh FAM212B (11763350_a_at) / RFU PLEKHG5 (11743358_a_at) / Fold change /veh PLEKHG5 (11743358_a_at) / RFU ZSCAN30 (11745921_a_at) / Fold change /veh ZSCAN30 (11745921_a_at) / RFU CMKLR1 (11741424_a_at) / Fold change /veh CMKLR1 (11741424_a_at) / RFU LOC101060620 /// MAPK8IP1 (11723275_at) / Fold change /veh LOC101060620 /// MAPK8IP1 (11723275_at) / RFU SPTSSB (11747773_x_at) / Fold change /veh SPTSSB (11747773_x_at) / RFU PRSS12 (11739890_at) / Fold change /veh PRSS12 (11739890_at) / RFU BIN1 (11741810_x_at) / Fold change /veh BIN1 (11741810_x_at) / RFU WNT11 (11732464_a_at) / Fold change /veh WNT11 (11732464_a_at) / RFU C10orf10 (11716521_a_at) / Fold change /veh C10orf10 (11716521_a_at) / RFU C5orf56 (11738089_at) / Fold change /veh C5orf56 (11738089_at) / RFU CYB561 (11721691_x_at) / Fold change /veh CYB561 (11721691_x_at) / RFU ANKRD19P (11752326_a_at) / Fold change /veh ANKRD19P (11752326_a_at) / RFU OR2T12 /// OR2T33 /// OR2T8 (11738714_s_at) / Fold change /veh OR2T12 /// OR2T33 /// OR2T8 (11738714_s_at) / RFU VCAN (11748164_a_at) / Fold change /veh VCAN (11748164_a_at) / RFU JSRP1 (11732532_at) / Fold change /veh JSRP1 (11732532_at) / RFU KRTAP10-11 (11738290_x_at) / Fold change /veh KRTAP10-11 (11738290_x_at) / RFU MYO3A (11730013_a_at) / Fold change /veh MYO3A (11730013_a_at) / RFU EBF3 (11725865_a_at) / Fold change /veh EBF3 (11725865_a_at) / RFU CAMK2N1 (11719241_x_at) / Fold change /veh CAMK2N1 (11719241_x_at) / RFU C5orf56 (11738088_a_at) / Fold change /veh C5orf56 (11738088_a_at) / RFU OLFML3 (11715873_a_at) / Fold change /veh OLFML3 (11715873_a_at) / RFU LOC100653217 /// NTM (11731650_a_at) / Fold change /veh LOC100653217 /// NTM (11731650_a_at) / RFU MAPK11 (11762145_a_at) / Fold change /veh MAPK11 (11762145_a_at) / RFU FIZ1 (11724087_x_at) / Fold change /veh FIZ1 (11724087_x_at) / RFU OASL (11726364_x_at) / Fold change /veh OASL (11726364_x_at) / RFU SOX15 (11748057_x_at) / Fold change /veh SOX15 (11748057_x_at) / RFU CD79A (11719716_a_at) / Fold change /veh CD79A (11719716_a_at) / RFU HIST1H1D (11736915_at) / Fold change /veh HIST1H1D (11736915_at) / RFU CASKIN2 (11723855_a_at) / Fold change /veh CASKIN2 (11723855_a_at) / RFU LOC730098 (11760151_x_at) / Fold change /veh LOC730098 (11760151_x_at) / RFU OR4N2 (11742367_at) / Fold change /veh OR4N2 (11742367_at) / RFU PRRT2 (11749266_a_at) / Fold change /veh PRRT2 (11749266_a_at) / RFU SNX32 (11753110_a_at) / Fold change /veh SNX32 (11753110_a_at) / RFU CDHR5 (11726645_a_at) / Fold change /veh CDHR5 (11726645_a_at) / RFU RCAN1 (11760418_a_at) / Fold change /veh RCAN1 (11760418_a_at) / RFU FAM167A (11723789_a_at) / Fold change /veh FAM167A (11723789_a_at) / RFU FAM26E (11764081_at) / Fold change /veh FAM26E (11764081_at) / RFU ISYNA1 (11749810_s_at) / Fold change /veh ISYNA1 (11749810_s_at) / RFU ACY1 (11761880_at) / Fold change /veh ACY1 (11761880_at) / RFU 11764098_at / Fold change /veh 11764098_at / RFU SAMD14 (11745864_x_at) / Fold change /veh SAMD14 (11745864_x_at) / RFU NPB (11741838_a_at) / Fold change /veh NPB (11741838_a_at) / RFU TMPRSS6 (11731388_a_at) / Fold change /veh TMPRSS6 (11731388_a_at) / RFU KRTAP10-2 (11738614_at) / Fold change /veh KRTAP10-2 (11738614_at) / RFU ARHGAP8 /// PRR5-ARHGAP8 (11727945_x_at) / Fold change /veh ARHGAP8 /// PRR5-ARHGAP8 (11727945_x_at) / RFU KRTAP5-7 /// NADSYN1 (11734609_at) / Fold change /veh KRTAP5-7 /// NADSYN1 (11734609_at) / RFU RASL12 (11751679_a_at) / Fold change /veh RASL12 (11751679_a_at) / RFU CDKN2B (11736163_a_at) / Fold change /veh CDKN2B (11736163_a_at) / RFU PRF1 (11729649_at) / Fold change /veh PRF1 (11729649_at) / RFU, ZNF638 /// ZNF638-IT1 / Fold change vs veh, ZNF638 /// ZNF638-IT1 / RFU, PANK3 / Fold change vs veh, PANK3 / RFU, SH3YL1 / Fold change vs veh, SH3YL1 / RFU, ZEB2 / Fold change vs veh, ZEB2 / RFU, NRIP1 / Fold change vs veh, NRIP1 / RFU, PTTG1IP / Fold change vs veh, PTTG1IP / RFU, CAPN2 / Fold change vs veh, CAPN2 / RFU, MED14 / Fold change vs veh, MED14 / RFU, SNORA58 / Fold change vs veh, SNORA58 / RFU, C1orf63 / Fold change vs veh, C1orf63 / RFU, LRRFIP1 / Fold change vs veh, LRRFIP1 / RFU, NDUFAF7 / Fold change vs veh, NDUFAF7 / RFU, SLC12A2 / Fold change vs veh, SLC12A2 / RFU, IBTK / Fold change vs veh, IBTK / RFU, ESF1 / Fold change vs veh, ESF1 / Fold change vs veh, TMEM50B / RFU, TAOK1 / Fold change vs veh, TAOK1 / RFU, ACBD3 / Fold change vs veh, ACBD3 / RFU, TMA16 / Fold change vs veh, TMA16 / RFU, RWDD3 / Fold change vs veh, RWDD3 / RFU, BCAT1 / Fold change vs veh, BCAT1 / RFU, EDEM3 / Fold change vs veh, EDEM3 / RFU, TMEM33 / Fold change vs veh, TMEM33 / RFU, WDR75 / Fold change vs veh, WDR75 / RFU, AHCTF1 / Fold change vs veh, AHCTF1 / RFU, TFRC / Fold change vs veh, TFRC / RFU, ZDHHC17 / Fold change vs veh, ZDHHC17 / RFU, NOM1 / Fold change vs veh, NOM1 / RFU, ARL8B / Fold change vs veh, ARL8B / RFU, ZBTB11 / Fold change vs veh, ZBTB11 / RFU, TAMM41 / Fold change vs veh, TAMM41 / RFU, KIAA1704 /// LOC100996395 / Fold change vs veh, KIAA1704 /// LOC100996395 / RFU, ING1 / Fold change vs veh, ING1 / RFU, TRMT61B / Fold change vs veh, TRMT61B / RFU, FUBP3 / Fold change vs veh, FUBP3 / RFU, TP53 / Fold change vs veh, TP53 / RFU, TNKS2 / Fold change vs veh, TNKS2 / RFU, ZFP14 / Fold change vs veh, ZFP14 / RFU, ACTR2 / Fold change vs veh, ACTR2 / RFU, PPP3R1 / Fold change vs veh, PPP3R1 / RFU, PIK3R1 / Fold change vs veh, PIK3R1 / RFU, HNRNPA1 / Fold change vs veh, HNRNPA1 / RFU, RNF170 / Fold change vs veh, RNF170 / RFU, ZNF28 / Fold change vs veh, ZNF28 / RFU, RNGTT / Fold change vs veh, RNGTT / RFU, OGT / Fold change vs veh, OGT / RFU, BRD1 / Fold change vs veh, BRD1 / RFU, MARS / Fold change vs veh, MARS / RFU, ZNF655 / Fold change vs veh, ZNF655 / RFU, FAHD1 / Fold change vs veh, FAHD1 / RFU, BDP1 / Fold change vs veh, BDP1 / RFU, LRRCC1 / Fold change vs veh, LRRCC1 / RFU, ARID1A / Fold change vs veh, ARID1A / RFU, ZNF146 / Fold change vs veh, ZNF146 / RFU, ZNF330 / Fold change vs veh, ZNF330 / RFU, GPN3 / Fold change vs veh, GPN3 / RFU, C9orf123 / Fold change vs veh, C9orf123 / RFU, N4BP2L2 / Fold change vs veh, N4BP2L2 / RFU, ARFIP1 / Fold change vs veh, ARFIP1 / RFU, FAM179B / Fold change vs veh, FAM179B / RFU, BCL10 / Fold change vs veh, BCL10 / RFU, UHRF1BP1L / Fold change vs veh, UHRF1BP1L / RFU, BET1 / Fold change vs veh, BET1 / RFU, CNOT2 / Fold change vs veh, CNOT2 / RFU, ZNF268 / Fold change vs veh, ZNF268 / Fold change vs veh, ZNF507 / RFU, DGCR2 / Fold change vs veh, DGCR2 / RFU, WDSUB1 / Fold change vs veh, WDSUB1 / Fold change vs veh, HSP90B1 /// MIR3652 / RFU, ADSS / Fold change vs veh, ADSS / RFU, GK / Fold change vs veh, GK / RFU, ZNF148 / Fold change vs veh, ZNF148 / RFU, TAF9 / Fold change vs veh, TAF9 / RFU, SLC1A5 / Fold change vs veh, SLC1A5 / RFU, SLMO2 / Fold change vs veh, SLMO2 / RFU, ABCC4 / Fold change vs veh, ABCC4 / RFU, LOC101060439 /// RAP1B / Fold change vs veh, LOC101060439 /// RAP1B / RFU, RFX7 / Fold change vs veh, RFX7 / RFU, GTPBP10 / Fold change vs veh, GTPBP10 / RFU, CNEP1R1 / Fold change vs veh, CNEP1R1 / RFU, BIVM-ERCC5 /// ERCC5 / Fold change vs veh, BIVM-ERCC5 /// ERCC5 / RFU, ILF3 / Fold change vs veh, ILF3 / RFU 11762660_at / Fold change /veh 11762660_at / RFU VCAN (11757783_s_at) / Fold change /veh VCAN (11757783_s_at) / RFU DDX43 (11728927_at) / Fold change /veh DDX43 (11728927_at) / RFU KRT8 (11758188_x_at) / Fold change /veh KRT8 (11758188_x_at) / RFU NKD1 (11759106_at) / Fold change /veh NKD1 (11759106_at) / RFU SRD5A1 (11742802_a_at) / Fold change /veh SRD5A1 (11742802_a_at) / RFU TPSAB1 /// TPSB2 (11721975_s_at) / Fold change /veh TPSAB1 /// TPSB2 (11721975_s_at) / RFU GSTM3 (11746129_a_at) / Fold change /veh GSTM3 (11746129_a_at) / RFU IL23R (11737362_x_at) / Fold change /veh IL23R (11737362_x_at) / RFU TMEM51 (11727254_a_at) / Fold change /veh TMEM51 (11727254_a_at) / RFU PIWIL2 (11732686_x_at) / Fold change /veh PIWIL2 (11732686_x_at) / RFU ORM1 (11744905_x_at) / Fold change /veh ORM1 (11744905_x_at) / RFU CCDC152 (11743942_at) / Fold change /veh CCDC152 (11743942_at) / RFU ECM1 (11717891_a_at) / Fold change /veh ECM1 (11717891_a_at) / RFU IL23R (11748794_a_at) / Fold change /veh IL23R (11748794_a_at) / RFU TNFAIP8L3 (11732012_x_at) / Fold change /veh TNFAIP8L3 (11732012_x_at) / RFU MBOAT4 (11741988_at) / Fold change /veh MBOAT4 (11741988_at) / RFU 11764193_at / Fold change /veh 11764193_at / RFU TMEM53 (11763286_at) / Fold change /veh TMEM53 (11763286_at) / RFU MAGEB2 (11727129_at) / Fold change /veh MAGEB2 (11727129_at) / RFU TMEM200A (11744735_a_at) / Fold change /veh TMEM200A (11744735_a_at) / RFU CCDC152 (11751479_a_at) / Fold change /veh CCDC152 (11751479_a_at) / RFU FAM211A (11726209_a_at) / Fold change /veh FAM211A (11726209_a_at) / RFU RGS16 (11746705_a_at) / Fold change /veh RGS16 (11746705_a_at) / RFU VCAN (11755009_s_at) / Fold change /veh VCAN (11755009_s_at) / RFU RHOB (11743442_s_at) / Fold change /veh RHOB (11743442_s_at) / RFU RGS16 (11720943_a_at) / Fold change /veh RGS16 (11720943_a_at) / RFU RGS16 (11720944_at) / Fold change /veh RGS16 (11720944_at) / RFU, VPS4B / Fold change vs veh, VPS4B / RFU, CREB1 / Fold change vs veh, CREB1 / RFU, DNAJC13 / Fold change vs veh, DNAJC13 / RFU, GNAQ / Fold change vs veh, GNAQ / RFU, CDK5R1 / Fold change vs veh, CDK5R1 / RFU, ZRANB3 / Fold change vs veh, ZRANB3 / RFU, CUL4A / Fold change vs veh, CUL4A / RFU, CCNY / Fold change vs veh, CCNY / RFU, UFL1 / Fold change vs veh, UFL1 / RFU, COG3 / Fold change vs veh, COG3 / RFU, DIAPH2 / Fold change vs veh, DIAPH2 / RFU, SKA2 / Fold change vs veh, SKA2 / RFU, AFF3 / Fold change vs veh, AFF3 / RFU, LMF1 / Fold change vs veh, LMF1 / RFU, IPO11 / Fold change vs veh, IPO11 / RFU, DFFB / Fold change vs veh, DFFB / RFU, FOXP1 / Fold change vs veh, FOXP1 / RFU, CARD8 / Fold change vs veh, CARD8 / RFU, STRN3 / Fold change vs veh, STRN3 / RFU, ADK / Fold change vs veh, ADK / RFU, RASSF2 / Fold change vs veh, RASSF2 / RFU, WIPF1 / Fold change vs veh, WIPF1 / RFU, LARP1B / Fold change vs veh, LARP1B / RFU, RASA1 / Fold change vs veh, RASA1 / RFU, RB1 / Fold change vs veh, RB1 / RFU, PPFIA1 / Fold change vs veh, PPFIA1 / RFU, MAT2A / Fold change vs veh, MAT2A / RFU, CCT5 / Fold change vs veh, CCT5 / RFU, WDR92 / Fold change vs veh, WDR92 / RFU, CUX1 / Fold change vs veh, CUX1 / RFU, TTC7A / Fold change vs veh, TTC7A / RFU, TMEM135 / Fold change vs veh, TMEM135 / RFU, DEPTOR / Fold change vs veh, DEPTOR / RFU, CPM / Fold change vs veh, CPM / RFU, DNAJB6 / Fold change vs veh, DNAJB6 / RFU, CACNA2D3 / Fold change vs veh, CACNA2D3 / RFU, DTX4 / Fold change vs veh, DTX4 / RFU, TFCP2 / Fold change vs veh, TFCP2 / RFU, GMCL1 /// GMCL1P1 / Fold change vs veh, GMCL1 /// GMCL1P1 / RFU, AEBP2 / Fold change vs veh, AEBP2 / RFU, SNHG1 /// SNORD22 /// SNORD25 /// SNORD26 /// SNORD27 /// SNORD28 /// SNORD29 /// SNORD31 / Fold change vs veh, SNHG1 /// SNORD22 /// SNORD25 /// SNORD26 /// SNORD27 /// SNORD28 /// SNORD29 /// SNORD31 / Fold change (Aza/veh), C12orf56 (ProbeSet 11735607_a_at) / Fold change (ACY-1035/veh), C12orf56 (ProbeSet 11735607_a_at) / Fold change (Aza/veh), FGFR1OP (ProbeSet 11751329_s_at) / Fold change (ACY-1035/veh), FGFR1OP (ProbeSet 11751329_s_at) / Fold change (Aza/veh), VPS36 (ProbeSet 11739960_a_at) / Fold change (ACY-1035/veh), VPS36 (ProbeSet 11739960_a_at) / RFU SYPL1 (11715823_x_at) / Fold change /veh SYPL1 (11715823_x_at) / RFU IGFBP7 (11715501_s_at) / Fold change /veh IGFBP7 (11715501_s_at) / RFU REEP3 (11722064_at) / Fold change /veh REEP3 (11722064_at) / RFU IGLL1 (11728026_x_at) / Fold change /veh IGLL1 (11728026_x_at): dose or concentration left out as unconfirmed
Details: ProbeSet 11732281_s_at; LIST D

## Nc1ncn([C@@H]2O[C@H](CO)[C@@H](O)[C@H]2O)c(=O)n1 [azacitidine]
  RFU, FOXP1: 174.32 RFU
